Data taken from patent US20090117083A1, “IMMUNOMODULATORY ALKALOIDS” (M N L PHARMA LIMITED, priority 2004, published 2009).
Like-named read-outs stand apart in the source and are kept apart here.

Experiments:
[1] = tested on: α-D-glucosidase; assay: Glycosidase inhibition: α-D-glucosidase, Bacillus; type: biochemical, Bacillus stearothermophilus; conditions: 1 mg/ml
Protocol: (§1) All enzymes were purchased from Sigma, as were the appropriate p-nitrophenyl substrates. Assays were carried out in microtitre plates. Enzymes were assayed in 0.1M citric acid/0.2M di-sodium hydrogen phosphate (McIlvaine) buffers at the optimum pH for the enzyme. All assays were carried out at 20° C. For screening assays the incubation assay consisted of 10 μl of enzyme solution, 10 μl of inhibitor solution (made up in water) and 50 μl of the appropriate 5 mM p-nitrophenyl substrate (3.57 mM final conc.) made up in McIlvaine buffer at the optimum pH for the enzyme.
(§2) The reactions were stopped with 0.4M glycine (pH 10.4) during the exponential phase of the reaction, which was determined at the beginning of the assay using blanks with water, which were incubated for a range of time periods to measure the reaction rate using 5 mM substrate solution. Endpoint absorbances were read at 405 nm with a Biorad microtitre plate reader (Benchmark). Water was substituted for the inhibitors in the blanks.

[2] = biological target: T1, α-D-mannosidase (Canavalia ensiformis, UniProt C0HJB3); assay: Glycosidase inhibition: α-D-mannosidase; type: biochemical, Jack beans (Canavalia ensiformis)
T1 construct: purchased Sigma
T1 sequence (C0HJB3 whole entry): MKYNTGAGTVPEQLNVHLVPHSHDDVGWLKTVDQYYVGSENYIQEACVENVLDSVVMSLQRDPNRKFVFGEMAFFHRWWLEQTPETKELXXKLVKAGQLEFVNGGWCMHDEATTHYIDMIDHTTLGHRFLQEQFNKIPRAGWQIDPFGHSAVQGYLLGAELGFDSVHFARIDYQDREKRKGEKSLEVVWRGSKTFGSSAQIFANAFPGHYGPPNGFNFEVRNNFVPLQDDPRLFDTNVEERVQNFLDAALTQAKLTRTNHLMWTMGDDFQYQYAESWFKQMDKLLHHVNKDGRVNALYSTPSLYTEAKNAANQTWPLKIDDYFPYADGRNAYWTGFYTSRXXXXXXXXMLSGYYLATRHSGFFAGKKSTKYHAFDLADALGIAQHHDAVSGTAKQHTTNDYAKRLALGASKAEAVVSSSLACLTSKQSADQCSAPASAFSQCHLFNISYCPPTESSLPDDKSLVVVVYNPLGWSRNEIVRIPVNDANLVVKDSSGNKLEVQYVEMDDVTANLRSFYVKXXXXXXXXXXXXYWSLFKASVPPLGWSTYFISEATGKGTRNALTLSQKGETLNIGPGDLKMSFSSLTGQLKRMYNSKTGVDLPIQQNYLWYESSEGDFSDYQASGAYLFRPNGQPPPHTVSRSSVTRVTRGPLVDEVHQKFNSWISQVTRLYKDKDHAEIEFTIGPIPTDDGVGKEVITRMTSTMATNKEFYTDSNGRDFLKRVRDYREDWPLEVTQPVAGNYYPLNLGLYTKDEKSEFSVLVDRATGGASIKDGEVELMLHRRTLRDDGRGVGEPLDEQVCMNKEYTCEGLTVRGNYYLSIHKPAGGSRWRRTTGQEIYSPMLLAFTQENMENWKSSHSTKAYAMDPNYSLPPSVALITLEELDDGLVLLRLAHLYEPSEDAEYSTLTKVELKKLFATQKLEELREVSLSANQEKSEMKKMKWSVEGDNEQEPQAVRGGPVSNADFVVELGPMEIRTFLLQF
Protocol: All enzymes were purchased from Sigma, as were the appropriate p-nitrophenyl substrates. Assays were carried out in microtitre plates. Enzymes were assayed in 0.1M citric acid/0.2M di-sodium hydrogen phosphate (McIlvaine) buffers at the optimum pH for the enzyme. All assays were carried out at 20° C.
Endpoint absorbances were read at 405 nm with a Biorad microtitre plate reader (Benchmark). Water was substituted for the inhibitors in the blanks.

[3] = biological target: T2, α-D-galactosidase (Coffea arabica, UniProt Q42656); assay: Glycosidase inhibition: α-D-galactosidase; type: biochemical, Green coffee beans (Coffea sp.)
T2 construct: purchased Sigma
T2 sequence (Q42656 16-378): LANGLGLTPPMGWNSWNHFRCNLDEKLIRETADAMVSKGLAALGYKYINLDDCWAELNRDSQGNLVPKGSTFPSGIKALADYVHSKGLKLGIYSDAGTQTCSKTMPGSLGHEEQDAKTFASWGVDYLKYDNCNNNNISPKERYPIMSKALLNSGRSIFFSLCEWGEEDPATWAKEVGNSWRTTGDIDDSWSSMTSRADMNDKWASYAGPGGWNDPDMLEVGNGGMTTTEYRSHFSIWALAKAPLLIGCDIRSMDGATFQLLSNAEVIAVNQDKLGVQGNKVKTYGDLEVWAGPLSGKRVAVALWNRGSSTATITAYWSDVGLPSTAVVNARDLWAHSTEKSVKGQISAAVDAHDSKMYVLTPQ
Protocol: as §1, §2

[4] = tested on: β-D-galactosidase; assay: Glycosidase inhibition: β-D-galactosidase; type: biochemical, Bovine; conditions: 1 mg/ml
Protocol: as §1, §2

[5] = biological target: T3, α-L-fucosidase (Bos taurus, UniProt Q2KIM0); assay: Glycosidase inhibition: α-L-fucosidase; type: biochemical, Bovine
T3 construct: purchased Sigma
T3 sequence (Q2KIM0 23-468): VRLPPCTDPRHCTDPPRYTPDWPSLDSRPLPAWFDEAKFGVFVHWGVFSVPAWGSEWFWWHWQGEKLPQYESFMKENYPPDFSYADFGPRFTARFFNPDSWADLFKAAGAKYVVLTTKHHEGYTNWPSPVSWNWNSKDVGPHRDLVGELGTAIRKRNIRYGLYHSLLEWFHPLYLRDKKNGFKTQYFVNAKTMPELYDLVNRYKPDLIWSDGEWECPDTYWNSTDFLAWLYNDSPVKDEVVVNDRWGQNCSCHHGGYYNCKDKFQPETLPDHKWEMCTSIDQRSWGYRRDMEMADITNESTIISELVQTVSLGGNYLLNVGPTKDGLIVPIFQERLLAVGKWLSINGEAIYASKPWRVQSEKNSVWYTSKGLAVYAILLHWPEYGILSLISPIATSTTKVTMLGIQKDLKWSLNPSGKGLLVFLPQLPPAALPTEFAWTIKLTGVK
Protocol: as §1, §2

[6] = tested on: N-acetyl-β-D-glucosaminidase; assay: Glycosidase inhibition: N-acetyl-β-D-glucosaminidase; type: biochemical, Bovine; conditions: 1 mg/ml
Protocol: as §1, §2

[7] = tested on: Naringinase; assay: Glycosidase inhibition: Naringinase; type: biochemical, Penecillium decumbens; conditions: 1 mg/ml
Protocol: as §1, §2

[8] = biological target: T4, α-D-glucosidase (Saccharomyces cerevisiae, UniProt P53341); assay: Glycosidase inhibition (p-nitrophenyl substrate): α-D-glucosidase, yeast; type: biochemical, Saccharomyces cerevisiae (Baker's yeast); conditions: 1 mg/ml
T4 construct: purchased Sigma
T4 sequence (P53341 whole entry): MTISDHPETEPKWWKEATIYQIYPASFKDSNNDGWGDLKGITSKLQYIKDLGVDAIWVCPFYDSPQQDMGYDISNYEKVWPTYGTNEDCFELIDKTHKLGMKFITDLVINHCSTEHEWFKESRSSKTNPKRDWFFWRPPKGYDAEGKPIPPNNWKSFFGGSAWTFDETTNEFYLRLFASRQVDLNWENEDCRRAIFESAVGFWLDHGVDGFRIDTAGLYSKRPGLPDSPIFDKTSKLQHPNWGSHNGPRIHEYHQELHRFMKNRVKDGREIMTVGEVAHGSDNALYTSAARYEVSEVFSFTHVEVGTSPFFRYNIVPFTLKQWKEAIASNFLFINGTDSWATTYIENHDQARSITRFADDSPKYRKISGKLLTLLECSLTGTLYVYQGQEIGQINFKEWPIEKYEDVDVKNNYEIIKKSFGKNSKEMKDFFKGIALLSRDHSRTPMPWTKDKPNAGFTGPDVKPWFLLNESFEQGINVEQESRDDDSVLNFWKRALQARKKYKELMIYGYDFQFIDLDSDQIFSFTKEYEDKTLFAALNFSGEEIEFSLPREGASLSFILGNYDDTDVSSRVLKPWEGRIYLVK
Protocol: as §1, §2

[9] = tested on: β-D-glucosidase; assay: Glycosidase inhibition: β-D-glucosidase, almond; type: biochemical, Almonds (Prunus sp.); conditions: 1 mg/ml
Protocol: as §1, §2

[10] = biological target: T5, α-D-glucosidase (Oryza sativa subsp. japonica, UniProt Q653V7); assay: Glycosidase inhibition: α-D-glucosidase, rice; type: biochemical, rice (Oryza sativa)
T5 construct: purchased Sigma
T5 sequence (Q653V7 34-885): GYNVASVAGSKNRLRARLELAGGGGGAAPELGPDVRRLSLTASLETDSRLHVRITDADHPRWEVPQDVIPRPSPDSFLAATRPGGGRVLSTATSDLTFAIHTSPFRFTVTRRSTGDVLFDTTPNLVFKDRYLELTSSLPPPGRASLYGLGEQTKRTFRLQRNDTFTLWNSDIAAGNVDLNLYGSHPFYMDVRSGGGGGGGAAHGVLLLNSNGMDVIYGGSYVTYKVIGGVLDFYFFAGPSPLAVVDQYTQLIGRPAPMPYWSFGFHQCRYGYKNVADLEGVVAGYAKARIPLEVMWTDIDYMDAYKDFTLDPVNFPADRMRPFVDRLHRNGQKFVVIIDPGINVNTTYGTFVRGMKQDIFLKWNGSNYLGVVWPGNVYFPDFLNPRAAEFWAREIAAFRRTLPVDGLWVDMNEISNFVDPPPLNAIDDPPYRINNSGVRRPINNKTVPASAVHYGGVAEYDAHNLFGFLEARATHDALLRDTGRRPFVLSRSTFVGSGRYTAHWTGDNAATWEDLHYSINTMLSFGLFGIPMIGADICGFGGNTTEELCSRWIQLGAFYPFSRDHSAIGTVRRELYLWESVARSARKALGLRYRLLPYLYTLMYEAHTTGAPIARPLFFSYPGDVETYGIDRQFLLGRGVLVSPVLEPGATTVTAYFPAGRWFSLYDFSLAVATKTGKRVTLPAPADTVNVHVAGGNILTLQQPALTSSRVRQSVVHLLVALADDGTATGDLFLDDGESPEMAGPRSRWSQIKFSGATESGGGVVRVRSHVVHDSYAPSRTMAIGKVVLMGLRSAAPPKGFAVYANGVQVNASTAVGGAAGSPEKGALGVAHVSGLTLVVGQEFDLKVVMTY
Protocol: as §1, §2

[11] = tested on: spleen cells; assay: Cytokine modulation in spleen cells (IFN-γ); type: cell-based, BALB/c mice
Protocol: BALB/c male and female mice bred and maintained at the University of Strathclyde under conventional conditions were used at varying age.
Cells suspensions were prepared by using the end of a syringe and grinding the spleen through a wire mesh. The cell suspension was then centrifuged at 1000 rpm for 5 minutes. To remove the erythrocytes, the cell pellet was resuspended in Boyle's solution (Tris 0.17M & Ammonium Chloride 0.16M) and centrifuged again for 5 minutes. The pellet was then washed in medium a further two times, then resuspended in 3 mls medium. A cell count was then carried out.
All spleen cell experiments were carried out in 96-well tissue culture plates. […] Unstimulated wells contained 100 μl of cells and 100 μl of medium. The stimulated wells contained 100 μl of cells plus 50 μl of LPS at 1 μg/ml or 50 μl anti-CD3 at 0.5 μg/ml and 50 μl of medium. The remaining wells contained 100 μl cells, 5 μl of MNLP compound and either 50 μl of anti-CD3 or medium alone.
The appropriate Mabs and standards were used according to the protocol described for IL-12 (described in Example 1, above).

[12] = tested on: HSV-1 (SC16); conditions: versus infected untreated group
[13] = read-out: % inhibition, α-mannosidase
[14] = 1 mg/ml, read-out: % inhibition, α-galactosidase
[15] = 1 mg/ml, read-out: % inhibition, α-fucosidase
[16] = read-out: % inhibition, α-gluc (yeast)
[17] = 1 mg/ml, read-out: % inhibition, α-gluc (rice)
[18] = read-out: % inhibition, α-fucosidase
[19] = read-out: % inhibition, α-gluc (rice)
[20] = read-out: % inhibition, mannosidase
[21] = read-out: % inhibition, galactosidase
[22] = 1 mg/ml, read-out: % inhibition, gluc (rice)
[23] = read-out: % inhibition, gluc (yeast)
[24] = 1 mg/ml, read-out: % inhibition, fucosidase

| SMILES | % inhibition, α-gluc (Bacillus) [1] [%] | inhibition at 1000 µg/mL [2, 13] [%] | inhibition at 1000 µg/mL [3, 14] [%] | % inhibition, β-galactosidase [4] [%] | inhibition at 1000 µg/mL [5, 15] [%] | % inhibition, N-acetyl-β-gluc [6] [%] | % inhibition, Naringinase [7] [%] | inhibition at 1000 µg/mL [8, 16] [%] | % inhibition, β-glucosidase [9] [%] | inhibition at 1000 µg/mL [10, 17] [%] | % inhibition, gluc (Bacillus) [1] [%] | % inhibition, glucosidase [9] [%] | inhibition at 1000 µg/mL [10, 22] [%] | also measured |
| --- | --- | --- | --- | --- | --- | --- | --- | --- | --- | --- | --- | --- | --- | --- |
| COc1cc([C@H]2N[C@H](CO)[C@@H](O)[C@@H]2O)ccc1O [Compound 65, PLB2] | 37 | -16 | 4 | 18 | -4 | 0 | 4 | 37 | 25 | 0 | – | – | – | – |
| O[C@@H]1[C@@H]2[C@@H](O)[C@H](O)[C@@H](O)CN2C[C@@H]1O [Compound 44, 2-β-hydroxycastanospermine] | – | 1 | -4 | −1 | – | 13 | 6 | 8 | 20 | – | – | – | – | – |
| O[C@@H]1[C@@H]2[C@@H](O)[C@H](O)[C@H](O)CN2C[C@H]1O [Compound 35, 2-α-hydroxy-6-epi-castanospermine] | −12 | 11 | -5 | −1 | – | 20 | 0 | -5 | −3 | – | – | – | – | inhibition at 1000 µg/mL [5, 18]: 0%; inhibition at 1000 µg/mL [10, 19]: 61% |
| OCCN1C[C@@H](O)[C@H](O)[C@H]1CO [Compound 55, N-hydroxyethyl-1,4-dideoxy-1,4-imino-D-arabinitol] | 15 | 5 | 4 | 13 | -7 | 6 | 44 | -3 | 44 | 71 | – | – | – | – |
| OCC1N[C@H](CO)[C@@H](O)[C@@H]1O (stereo partly drawn) [DMDP, 2,6-dihydroxymethyl-3,4-dihydroxypyrrolidine] | 85 | 25 | -3 | 71 | -4 | 25 | 0 | 74 | 81 | 91 | – | – | – | – |
| OC[C@H]1[C@@H](O)[C@H](O)[C@@H]2[C@@H](O)[C@H](O)CN21 [Compound 21, 3,6,7,7a-tetraepi-casuarine] | – | – | – | – | – | 27 | 5 | – | – | – | −2 | 44 | 46 | inhibition at 1000 µg/mL [2, 20]: 1%; inhibition at 1000 µg/mL [3, 21]: -3% |
| OC[C@H]1NC[C@H](O)[C@@H](O)[C@@H]1O [1-Deoxynojirimycin (DNJ) (21), 1-Deoxynojirimycin] | – | – | – | – | – | – | – | – | – | – | – | – | – | IFN-γ secretion/production in splenocytes [11]: inhibited |
| OC[C@H]1[C@@H](O)[C@H](O)[C@@H]2[C@@H](O)[C@@H](O)CN21 [Compound 22, 3,7,7a-triepi-casuarine] | – | – | – | – | – | – | 10 | – | – | – | 87 | 52 | 0 | inhibition at 1000 µg/mL [8, 23]: 29% |
| OC[C@H]1[C@@H](O)[C@H](O)[C@H]2[C@@H](O)[C@H](O)CN21 [Compound 12, 3,6,7-triepi-casuarine] | – | – | – | – | – | 19 | 0 | – | – | – | 9 | 6 | 0 | inhibition at 1000 µg/mL [2, 20]: 8%; inhibition at 1000 µg/mL [3, 21]: 2%; inhibition at 1000 µg/mL [5, 24]: -11%; inhibition at 1000 µg/mL [8, 23]: 2% |
| O[C@@H]1[C@@H]2[C@@H](O)[C@H](O)[C@@H](O)CN2C[C@H]1O [Compound 64, 2-α-hydroxycastanospermine] | −15 | 21 | -9 | −3 | – | 21 | 76 | -6 | −1 | – | – | – | – | inhibition at 1000 µg/mL [5, 18]: 4%; inhibition at 1000 µg/mL [10, 19]: 12% |
| OC[C@H]1N[C@H](c2ccc(O)cc2)[C@@H](O)[C@@H]1O [Compound 36, PLB1] | 62 | 42 | 43 | 52 | 13 | 30 | 41 | 19 | 52 | 54 | – | – | – | – |
| OC[C@@H]1[C@@H](O)[C@H](O)[C@H]2[C@@H](O)[C@@H](O)CN21 [7-epi-casuarine (11), 7-epi-casuarine] | – | – | – | – | – | – | −4 | – | – | – | 5 | 30 | 73 | inhibition at 1000 µg/mL [3, 21]: 1%; inhibition at 1000 µg/mL [5, 24]: 25% |
| CC(=O)OCC(CCn1cnc2cnc(N)nc21)COC(C)=O [famciclovir, reference compound] | – | – | – | – | – | – | – | – | – | – | – | – | – | ear thickness response [12]: almost completely negated |
